Reference: US8633204B2 (Pfizer Inc., priority 2006, dated 2014)

Legend:
[1] = target: PI3-Kα (Mus musculus (Mouse), UniProt P42337); assay: PI3-Kα Biochemical Assay (fluorescence polarization kinase assay)
In short: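 Co-expressed mouse p110/p85 PI3-Kα (4 nM stock) acting on PI(4,5)P2 (60 μM stock) with ATP/MgCl2 in HEPES pH 7.4 buffer, 35 min at room temperature, then EDTA stop. PI(3,4,5)P3 product detected by displacement of TAMRA-PIP3 from Grip1 PH domain (FP, 535/580 nm). IC50 from sigmoidal fit of % inhibition.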

[2] = test system: PI3-K in BT20 cells (phosphorylation of AKT at serine 473); assay: PI3-Kα Cellular Assay (AKT Ser473 phosphorylation ELISA in BT20 cells); assay type: cell-based, human; settings: Homo sapiens, BT-20, pAKT Ser473 ELISA, 1 hour incubation
In short: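 Cells seeded overnight in 0.5% FBS, then exposed 1 h at 37 °C to an 11-concentration 1:3 dilution series, in duplicate.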

Chain of PI3-Kα (P42337 whole entry, the tested form may be a part): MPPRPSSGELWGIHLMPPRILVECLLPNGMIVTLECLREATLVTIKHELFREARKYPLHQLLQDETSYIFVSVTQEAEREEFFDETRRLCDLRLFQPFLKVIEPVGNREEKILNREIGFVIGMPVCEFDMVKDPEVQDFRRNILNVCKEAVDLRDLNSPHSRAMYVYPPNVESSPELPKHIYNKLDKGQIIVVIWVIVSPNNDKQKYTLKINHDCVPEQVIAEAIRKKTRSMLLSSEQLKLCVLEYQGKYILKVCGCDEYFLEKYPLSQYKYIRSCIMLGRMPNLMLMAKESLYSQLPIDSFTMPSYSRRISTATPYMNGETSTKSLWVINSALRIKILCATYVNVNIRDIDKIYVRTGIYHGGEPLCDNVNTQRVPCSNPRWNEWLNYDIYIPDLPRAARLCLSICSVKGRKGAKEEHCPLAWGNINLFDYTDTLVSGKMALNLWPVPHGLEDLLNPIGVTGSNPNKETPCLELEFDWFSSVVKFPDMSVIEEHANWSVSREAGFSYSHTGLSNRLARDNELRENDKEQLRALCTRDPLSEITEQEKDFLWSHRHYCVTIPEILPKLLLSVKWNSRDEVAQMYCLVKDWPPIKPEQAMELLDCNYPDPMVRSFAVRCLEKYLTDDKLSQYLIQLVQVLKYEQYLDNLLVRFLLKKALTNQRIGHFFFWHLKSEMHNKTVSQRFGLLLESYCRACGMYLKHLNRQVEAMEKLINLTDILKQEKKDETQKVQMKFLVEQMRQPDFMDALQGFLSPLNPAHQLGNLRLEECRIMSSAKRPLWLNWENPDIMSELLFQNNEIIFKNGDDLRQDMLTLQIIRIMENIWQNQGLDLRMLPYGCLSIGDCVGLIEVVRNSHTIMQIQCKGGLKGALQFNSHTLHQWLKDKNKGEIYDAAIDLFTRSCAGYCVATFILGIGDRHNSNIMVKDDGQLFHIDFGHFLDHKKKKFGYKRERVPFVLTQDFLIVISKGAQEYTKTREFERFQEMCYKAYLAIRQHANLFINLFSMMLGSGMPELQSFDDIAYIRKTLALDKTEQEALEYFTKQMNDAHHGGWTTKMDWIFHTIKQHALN
Chain of PI3-Kα (P26450 whole entry partner, the tested form may be a part): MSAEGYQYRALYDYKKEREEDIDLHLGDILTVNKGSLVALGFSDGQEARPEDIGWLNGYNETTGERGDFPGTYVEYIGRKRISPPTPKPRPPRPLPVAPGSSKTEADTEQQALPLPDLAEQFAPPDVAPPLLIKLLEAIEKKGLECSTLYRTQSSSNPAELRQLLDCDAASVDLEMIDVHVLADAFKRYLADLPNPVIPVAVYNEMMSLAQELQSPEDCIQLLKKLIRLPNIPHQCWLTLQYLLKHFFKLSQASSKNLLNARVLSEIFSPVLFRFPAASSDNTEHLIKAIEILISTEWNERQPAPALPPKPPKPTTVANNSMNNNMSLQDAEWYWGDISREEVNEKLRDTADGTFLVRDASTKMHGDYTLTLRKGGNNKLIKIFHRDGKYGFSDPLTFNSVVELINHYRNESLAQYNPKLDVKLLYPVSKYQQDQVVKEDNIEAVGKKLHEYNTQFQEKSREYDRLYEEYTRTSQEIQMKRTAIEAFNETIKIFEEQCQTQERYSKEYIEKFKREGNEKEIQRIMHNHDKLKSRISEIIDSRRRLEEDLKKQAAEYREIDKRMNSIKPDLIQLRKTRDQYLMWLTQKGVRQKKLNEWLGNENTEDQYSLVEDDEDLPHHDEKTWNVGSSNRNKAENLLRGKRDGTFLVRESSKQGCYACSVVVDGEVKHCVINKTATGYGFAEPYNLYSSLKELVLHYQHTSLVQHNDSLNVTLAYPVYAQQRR

IC50 [1] [nM]	IC50 [2] [nM]	Compound
3.11	14.6	COc1ncc(-c2cc3c(C)nc(N)nc3n([C@H]3C[C@H](OCCO)C3)c2=O)cc1F [Compound 315, 2-amino-6-(5-fluoro-6-methoxypyridin-3-yl)-8-[trans-3-(2-hydroxyethoxy)cyclobutyl]-4-methylpyrido[2,3-d]pyrimidin-7(8H)-one]
6.65	93.5	COc1ncc(-c2cc3c(C)nc(N)nc3n([C@H]3C[C@H](OCCO)C3)c2=O)cn1 [Compound 316, 2-amino-8-[trans-3-(2-hydroxyethoxy)cyclobutyl]-6-(2-methoxypyrimidin-5-yl)-4-methylpyrido[2,3-d]pyrimidin-7(8H)-one]
4.72	33.5	COc1ccc(-c2cc3c(C)nc(N)nc3n([C@H]3C[C@H](OCC(N)=O)C3)c2=O)cn1 [Compound 317, 2-({trans-3-[2-amino-6-(6-methoxypyridin-3-yl)-4-methyl-7-oxopyrido[2,3-d]pyrimidin-8(7H)-yl]cyclobutyl}oxy)acetamide]
2.14	12.6	COc1ncc(-c2cc3c(C)nc(N)nc3n([C@H]3C[C@H](OCC(N)=O)C3)c2=O)cc1F [Compound 318, 2-({trans-3-(2-amino-6-(5-fluoro-6-methoxypyridin-3-yl)-4-methyl-7-oxopyrido[2,3-yl]pyrimidin-8(7H)-yl)cyclobutyl}oxy)acetamide]
5.91	110	COc1ncc(-c2cc3c(C)nc(N)nc3n([C@H]3C[C@H](OCC(N)=O)C3)c2=O)cn1 [Compound 319, 2-({trans-3-(2-amino-6-(2-methoxypyrimidin-5-yl)-4-methyl-7-oxopyrido[2,3-d]pyrimidin-8(7H)-yl]cydobutyl}oxy)acetamide]
